Measurements from PMC4942781, “A sodium channel inhibitor ISTX-I with a novel structure provides a new hint at the evolutionary link between two toxin folds” (Scientific Reports, 2016).
Bridge positions count the residues as written; N and C are the ends. Ends that are not written are not given here.

Legend:
TTX-r sodium channel = experiment: Whole-cell patch clamp, TTX-r sodium currents in rat DRG neurons; assay type: cell-based
Experimental: The effects of ISTX-I on voltage-gated ion channels were investigated in the dorsal root ganglion (DRG). DRG neurons were held at −80 mV for over 4 min to allow adequate equilibration between the micropipette solution and the cell interior, and then current traces were evoked using a 50 ms step depolarization to −10 mV every second.
Figure 3 Effects of ISTX-I on voltage-gated ion channels in rat DRG neurons. […] (C) Dose-dependent inhibition of ISTX-I on the TTX-s Nav channel (n = 5). (D) Current-voltage (I-V) relationship for the TTX-s Nav channel currents before (solid circles) and after (open circles) the application of 5 μM ISTX-I (n = 5). […]
(§1) DRG neurons with a large diameter (>[…]) and those with a relatively small diameter (<[…]) were chosen by measuring TTX-s and TTX-r currents, respectively. […] Potassium, calcium, and sodium currents were recorded in experimental cells using whole-cell patch-clamp recordings at room temperature, which were performed with an HEK EPC10 patch-clamp amplifier. […] Experimental data were acquired and analyzed using the programs patch master and Sigmaplot 9.0 (Sigma, USA). […]
Currents were recorded from experimental cells using whole-cell patch clamptechnique at room temperature (22–25 °C). […] K+ currents were recorded using an internal solution containing the followings (in mM): KCl 140, MgCl2 2.5, HEPES 10, and EGTA 11 (pH 7.2). […]

hNav1.2 = experiment: Whole-cell patch clamp, hNav1.2 in HEK293T cells; assay type: cell-based, human; conditions: 10 μM ISTX-I; 50 ms step to -10 mV from -80 mV
Experimental: (§2) HEK293T (human embryonic kidney) cells were grown in DMEM containing 10% heat-inactivated FBS at 37 °C in a 5% CO2 incubator. The cDNA genes encoding human (h)Nav1.1, (h)Nav1.2, (h)Nav1.3, (h)Nav1.4, (h)Nav1.5, (h)Nav1.6 and (h)Nav1.7 were transiently transfected into HEK293T cells for electrophysiology using Lipofectamine-2000 (Invitrogen) in serum-reduced medium (Opti-MEM, Invitrogen) following the manufacturer’s instructions. The auxiliary subunits hβ1 and enhanced green florescent protein plasmids were cotransfected into HEK293T cells to increase the current density and efficiently select cells with green florescent protein for whole-cell patch-clamp recordings. After 12 h, the HEK293T cells were used for electrophysiological analysis.
as §1
(§3) Currents were recorded from experimental cells using whole-cell patch clamptechnique at room temperature (22–25 °C). […]

hNav1.3 = experiment: Whole-cell patch clamp, hNav1.3 in HEK293T cells; assay type: cell-based, human; conditions: 10 μM ISTX-I; 50 ms step to -10 mV from -80 mV
Experimental: as §2, §1, §3

Sequence: LCSENGDCAADECCVDTVFEGDMVTRSCEKTTGNFTECPGLTPIA (disulfide 2-14, 8-28, 13-38) [ISTX-I]
- effect on TTX-r sodium channels (summary) (TTX-r sodium channel): not TTX-r sodium channels
- effect on TTX-r sodium channel currents (TTX-r sodium channel; 10 μM ISTX-I, 100 nM TTX to separate TTX-r currents): no effect
- effect on hNav1.2 (hNav1.2): no effect
- effect on hNav1.3 (hNav1.3): no effect
